Source: patent publication US9624208B2, “Benzoxazolinone compounds with selective activity in voltage-gated sodium channels” (Merck Sharp & Dohme Corp., priority 2012, dated 2017)

Legend:
human Nav1.7 = molecular target: T1, human Nav1.7 (Homo sapiens, UniProt Q15858); experiment: PatchXpress sodium current measurement, inactivated state block, Nav1.7; format: cell-based; details: channels stably expressed in HEK 293 cells, double-pulse protocol, 22° C., read-out: potency for the Nav 1.7 sodium ion channel (1.7=)
T1 construct: expressed in transfected cells
T1 sequence (Q15858 whole entry): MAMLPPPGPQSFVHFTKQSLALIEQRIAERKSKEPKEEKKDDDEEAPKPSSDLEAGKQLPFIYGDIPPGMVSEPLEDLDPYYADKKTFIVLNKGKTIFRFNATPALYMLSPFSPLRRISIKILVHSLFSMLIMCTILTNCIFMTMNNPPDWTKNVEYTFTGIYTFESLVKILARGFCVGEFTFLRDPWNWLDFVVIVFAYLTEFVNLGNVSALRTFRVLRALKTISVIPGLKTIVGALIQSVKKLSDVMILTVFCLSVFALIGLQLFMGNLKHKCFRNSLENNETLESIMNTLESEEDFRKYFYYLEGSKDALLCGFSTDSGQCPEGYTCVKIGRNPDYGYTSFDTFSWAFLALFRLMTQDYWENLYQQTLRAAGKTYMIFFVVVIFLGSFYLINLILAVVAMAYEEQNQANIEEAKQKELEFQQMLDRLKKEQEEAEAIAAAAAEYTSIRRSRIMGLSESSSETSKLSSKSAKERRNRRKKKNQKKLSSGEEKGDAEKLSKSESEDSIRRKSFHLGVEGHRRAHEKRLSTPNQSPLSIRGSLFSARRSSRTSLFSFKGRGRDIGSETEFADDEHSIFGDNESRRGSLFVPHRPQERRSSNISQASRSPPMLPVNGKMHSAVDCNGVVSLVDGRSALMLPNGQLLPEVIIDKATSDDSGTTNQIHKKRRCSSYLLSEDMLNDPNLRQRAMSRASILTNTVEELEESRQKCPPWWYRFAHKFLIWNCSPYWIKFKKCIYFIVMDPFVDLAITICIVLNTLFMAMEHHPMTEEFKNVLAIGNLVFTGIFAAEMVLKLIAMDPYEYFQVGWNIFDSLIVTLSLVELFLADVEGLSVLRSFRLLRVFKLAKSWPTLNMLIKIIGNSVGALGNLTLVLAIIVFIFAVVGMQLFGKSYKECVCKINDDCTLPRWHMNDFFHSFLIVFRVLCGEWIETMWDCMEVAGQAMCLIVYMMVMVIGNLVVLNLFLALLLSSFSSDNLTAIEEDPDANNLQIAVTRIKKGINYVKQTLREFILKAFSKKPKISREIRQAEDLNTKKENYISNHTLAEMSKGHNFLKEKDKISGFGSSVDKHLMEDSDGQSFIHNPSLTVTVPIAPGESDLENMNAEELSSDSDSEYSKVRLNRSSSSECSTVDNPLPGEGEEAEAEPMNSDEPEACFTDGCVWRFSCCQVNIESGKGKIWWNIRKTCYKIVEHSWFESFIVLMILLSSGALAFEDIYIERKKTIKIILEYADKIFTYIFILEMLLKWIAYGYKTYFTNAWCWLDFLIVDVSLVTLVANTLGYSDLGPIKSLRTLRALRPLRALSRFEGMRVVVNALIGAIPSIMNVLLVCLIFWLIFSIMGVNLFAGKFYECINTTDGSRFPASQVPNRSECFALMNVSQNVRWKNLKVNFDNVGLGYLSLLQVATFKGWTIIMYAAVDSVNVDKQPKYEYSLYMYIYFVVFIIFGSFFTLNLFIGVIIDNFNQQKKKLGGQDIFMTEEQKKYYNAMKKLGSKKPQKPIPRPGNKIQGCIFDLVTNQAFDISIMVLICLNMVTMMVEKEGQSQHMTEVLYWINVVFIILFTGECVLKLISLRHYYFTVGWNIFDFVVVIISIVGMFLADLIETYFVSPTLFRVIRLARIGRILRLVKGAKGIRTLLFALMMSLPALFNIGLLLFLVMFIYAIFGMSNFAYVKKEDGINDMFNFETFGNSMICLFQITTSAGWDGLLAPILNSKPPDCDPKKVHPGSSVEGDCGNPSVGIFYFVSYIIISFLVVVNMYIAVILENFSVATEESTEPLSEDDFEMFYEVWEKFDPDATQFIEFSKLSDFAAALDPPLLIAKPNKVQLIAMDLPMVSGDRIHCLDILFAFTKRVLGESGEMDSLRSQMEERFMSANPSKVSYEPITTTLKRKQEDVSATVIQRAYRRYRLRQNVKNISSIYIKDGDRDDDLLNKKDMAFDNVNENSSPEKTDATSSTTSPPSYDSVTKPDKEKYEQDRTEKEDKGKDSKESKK
Procedure: (§1) Cell Based Assays for Nav 1.7 and Nav 1.5 Activity
(§2) Compounds were tested on human Nav1.7 and Nav1.5 channels stably expressed in HEK 293 cells.
(§3) Sodium Current Measurements on the PatchXpress 7000:
(§4) To measure inactivated state block of sodium channels, test compounds were characterized in an automated PatchXpress® assay (Molecular Devices) using a double-pulse protocol on human Nav1.7 and Nav1.5 channels stably expressed in HEK 293 cells. Cells were held at a potential 20 mV negative to the potential at which ˜50% of the channels are inactivated. A 8000 ms pre-pulse 7 mV positive to the potential at which ˜50% of the channels are inactivated was given followed by a hyperpolarizing 2 ms pulse to −120 mV and a 20 ms test pulse to −20 mV. The protocol was applied to cells in the absence, presence of compound and after washout. The temperature of PatchXpress® instruments was maintained at 22° C. The following recording solutions were used. Internal solution (mM): 30 CsCl, 5 HEPES, 10 EGTA, 120 CsF, 5 NaF, 2 MgCl2, pH 7.3 with CsOH. External solution (mM): 120 NMDG, 40 NaCl, 1 KCl, 0.5 MgCl2, 5 HEPES, 2.7 CaCl2, pH 7.5 with NMDG-OH. Estimated IC50 values were calculated based on at least two compound concentrations tested. For all electrophysiology experiments, offline analysis was used to correct for current rundown and to determine percent inhibition as a function of drug concentration. IC50 values were determined by fitting to the Hill equation.

human Nav1.5 = molecular target: T2, human Nav1.5 (Homo sapiens, UniProt Q14524); experiment: PatchXpress sodium current measurement, inactivated state block, Nav1.5; format: cell-based; details: determined by PatchXpress measurement, HEK 293 cells
T2 construct: expressed in transfected cells
T2 sequence (Q14524 whole entry): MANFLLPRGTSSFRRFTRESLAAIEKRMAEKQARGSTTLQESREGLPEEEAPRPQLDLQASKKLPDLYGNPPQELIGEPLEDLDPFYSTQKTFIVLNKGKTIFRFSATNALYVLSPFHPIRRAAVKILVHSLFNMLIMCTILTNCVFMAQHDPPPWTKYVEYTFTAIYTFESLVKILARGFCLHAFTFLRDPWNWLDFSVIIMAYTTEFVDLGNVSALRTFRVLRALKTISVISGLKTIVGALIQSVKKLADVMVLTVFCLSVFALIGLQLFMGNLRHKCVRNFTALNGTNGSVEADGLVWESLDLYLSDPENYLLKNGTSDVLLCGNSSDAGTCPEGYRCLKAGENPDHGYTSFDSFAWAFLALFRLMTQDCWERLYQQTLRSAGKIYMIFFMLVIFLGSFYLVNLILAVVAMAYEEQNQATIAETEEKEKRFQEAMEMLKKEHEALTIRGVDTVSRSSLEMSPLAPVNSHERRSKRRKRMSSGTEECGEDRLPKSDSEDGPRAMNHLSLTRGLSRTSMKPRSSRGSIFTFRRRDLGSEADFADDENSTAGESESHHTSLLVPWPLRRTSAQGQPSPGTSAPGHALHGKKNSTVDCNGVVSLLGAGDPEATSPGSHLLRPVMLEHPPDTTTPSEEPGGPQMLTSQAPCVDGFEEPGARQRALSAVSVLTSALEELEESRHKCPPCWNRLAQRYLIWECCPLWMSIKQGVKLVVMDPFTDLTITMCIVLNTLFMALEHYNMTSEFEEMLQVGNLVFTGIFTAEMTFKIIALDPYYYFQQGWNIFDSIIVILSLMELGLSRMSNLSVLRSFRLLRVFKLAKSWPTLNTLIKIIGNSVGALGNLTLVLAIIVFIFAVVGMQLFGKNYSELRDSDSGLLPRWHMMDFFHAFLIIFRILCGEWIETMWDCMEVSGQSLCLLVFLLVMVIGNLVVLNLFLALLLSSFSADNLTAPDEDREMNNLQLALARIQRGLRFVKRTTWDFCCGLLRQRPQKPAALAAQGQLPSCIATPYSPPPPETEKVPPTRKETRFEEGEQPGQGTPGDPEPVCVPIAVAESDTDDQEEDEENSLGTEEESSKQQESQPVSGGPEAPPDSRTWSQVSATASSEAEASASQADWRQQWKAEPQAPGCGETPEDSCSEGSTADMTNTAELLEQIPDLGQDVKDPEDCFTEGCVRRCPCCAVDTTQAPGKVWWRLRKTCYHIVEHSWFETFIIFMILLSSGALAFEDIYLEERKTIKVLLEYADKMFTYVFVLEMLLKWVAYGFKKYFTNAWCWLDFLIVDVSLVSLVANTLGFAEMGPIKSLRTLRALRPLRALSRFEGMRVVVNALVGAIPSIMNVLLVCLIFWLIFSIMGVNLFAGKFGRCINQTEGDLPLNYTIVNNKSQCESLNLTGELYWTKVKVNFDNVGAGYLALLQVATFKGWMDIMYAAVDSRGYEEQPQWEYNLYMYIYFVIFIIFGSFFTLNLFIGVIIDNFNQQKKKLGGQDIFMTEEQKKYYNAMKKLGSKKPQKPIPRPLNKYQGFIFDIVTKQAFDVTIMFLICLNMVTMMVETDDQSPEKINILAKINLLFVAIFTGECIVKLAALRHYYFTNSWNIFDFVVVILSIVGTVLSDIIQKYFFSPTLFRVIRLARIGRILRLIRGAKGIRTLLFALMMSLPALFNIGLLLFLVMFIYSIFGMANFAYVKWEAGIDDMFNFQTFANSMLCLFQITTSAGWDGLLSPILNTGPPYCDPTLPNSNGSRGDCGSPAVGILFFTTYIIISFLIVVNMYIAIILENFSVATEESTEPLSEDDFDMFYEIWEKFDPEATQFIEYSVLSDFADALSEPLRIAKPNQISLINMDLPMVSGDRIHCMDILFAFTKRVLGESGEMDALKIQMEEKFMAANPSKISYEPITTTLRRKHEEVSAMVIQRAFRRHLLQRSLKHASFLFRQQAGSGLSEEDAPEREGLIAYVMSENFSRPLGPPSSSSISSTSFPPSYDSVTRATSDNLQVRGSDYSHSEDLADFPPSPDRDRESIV
Procedure: as §1, §2, §3, §4

Row | IC50 (human Nav1.7) [nM] | SMILES | ratio of Nav 1.5:Nav 1.7 potency (human Nav1.5)
1 | 68 | C[C@H](c1cccc(C#C[C@@H]2CCCC[C@@H]2N)c1)n1c(=O)oc2cc(S(=O)(=O)Nc3cccc(F)n3)c(F)cc21 [Ex21-17, 3-[(1R)-1-(3-{[(1S,2S)-2-aminocyclohexyl]ethynyl}phenyl)ethyl]-5-fluoro-N-(6-fluoropyridin-2-yl)-2-oxo-2,3-dihydro-1,3-benzoxazole-6-sulfonamide] | 41
2 | 108 | C[C@H](c1ccccc1C#CCC(C)(C)N)n1c(=O)oc2cc(S(=O)(=O)Nc3cccc(F)n3)c(F)cc21 [Ex8-7, 3-{(1R)-1-[2-(4-amino-4-methylpent-1-yn-1-yl)phenyl]ethyl}-5-fluoro-N-(6-fluoropyridin-2-yl)-2-oxo-2,3-dihydro-1,3-benzoxazole-6-sulfonamide] | > 131
3 | 885 | CC(N)C#Cc1cccc([C@@H](C)n2c(=O)oc3cc(S(=O)(=O)Nc4cccc(F)n4)c(F)cc32)c1 (stereo partly drawn) [Ex21-5, 3-{(1R)-1-[3-(3-aminobut-1-yn-1-yl)phenyl]ethyl}-5-fluoro-N-(6-fluoropyridin-2-yl)-2-oxo-2,3-dihydro-1,3-benzoxazole-6-sulfonamide] | 34
4 | 337 | C[C@H](c1cccc(C#CCN2CCCC2)c1)n1c(=O)oc2cc(S(=O)(=O)Nc3cccc(F)n3)c(F)cc21 [Ex21-7, 5-fluoro-N-(6-fluoropyridin-2-yl)-2-oxo-3-[(1R)-1-{3-[3-(pyrrolidin-1-yl)prop-1-yn-1-yl]phenyl}ethyl]-2,3-dihydro-1,3-benzoxazole-6-sulfonamide] | 89
5 | 32 | Cc1cccc([C@@H](C)n2c(=O)oc3cc(S(=O)(=O)Nc4cccc(F)n4)c(F)cc32)c1C#C[C@@H]1CCCC[C@@H]1N [Ex21-27, 3-[(1R)-1-(2-{[(1S,2S)-2-aminocyclohexyl]-ethynyl}-3-methylphenyl)ethyl]-5-fluoro-N-(6-fluoropyridin-2-yl)-2-oxo-2,3-dihydro-1,3-benzoxazole-6-sulfonamide] | 476
6 | 300 | C[C@H](c1ccccc1CN1CCCCC1)n1c(=O)oc2cc(S(=O)(=O)Nc3cccc(F)n3)c(F)cc21 [Ex9-3, 5-fluoro-N-(6-fluoropyridin-2-yl)-2-oxo-3-{(1R)-1-[2-(piperidin-1-ylmethyl)phenyl]ethyl}-2,3-dihydro-1,3-benzoxazole-6-sulfonamide] | 68
7 | 127 | C[C@H](c1cccc(C2=CCNCC2)c1)n1c(=O)oc2cc(S(=O)(=O)Nc3cccc(F)n3)c(F)cc21 [Ex7-10, 5-fluoro-N-(6-fluoropyridin-2-yl)-2-oxo-3-{(1R)-1-[3-(1,2,3,6-tetrahydropyridin-4-yl)phenyl]ethyl}-2,3-dihydro-1,3-benzoxazole-6-sulfonamide] | 331
8 | 9 | Cc1cc2c(cc1S(=O)(=O)Nc1cccc(F)n1)oc(=O)n2[C@H](C)c1cccc(C)c1C#C[C@@H]1CCCC[C@@H]1N [Ex21-25, 3-[(1R)-1-(2-{[(1S,2S)-2-aminocyclohexyl]-ethynyl}-3-methylphenyl)ethyl]-N-(6-fluoropyridin-2-yl)-5-methyl-2-oxo-2,3-dihydro-1,3-benzoxazole-6-sulfonamide] | 167
9 | 152 | C[C@H](c1cccc2c1CNCC2)n1c(=O)oc2cc(S(=O)(=O)Nc3cccc(F)n3)ccc21.Cl [Ex2-5, (R)—N-(6-fluoropyridin-2-yl)-2-oxo-3-(1-(1,2,3,4-tetrahydroisoquinolin-8-yl)ethyl)-2,3-dihydrobenzo[d]oxazole-6-sulfonamide hydrochloride] | 316
10 | 49 | Cc1cc2c(cc1S(=O)(=O)Nc1cccc(F)n1)oc(=O)n2[C@H](C)c1ccccc1CN [Ex17-7, 3-{(1R)-1-[2-(aminomethyl)phenyl]ethyl}-N-(6-fluoropyridin-2-yl)-5-methyl-2-oxo-2,3-dihydro-1,3-benzoxazole-6-sulfonamide] | 147
11 | 273 | C[C@H](c1ccccc1C#CCN(C)C)n1c(=O)oc2cc(S(=O)(=O)Nc3cccc(F)n3)c(F)cc21 [Ex8-9, 3-[(1R)-1-{2-[3-(dimethylamino)prop-1-yn-1-yl]phenyl}ethyl]-5-fluoro-N-(6-fluoropyridin-2-yl)-2-oxo-2,3-dihydro-1,3-benzoxazole-6-sulfonamide] | 99
12 | 342 | C[C@H](c1cccc(C#CC2CCCN2)c1)n1c(=O)oc2cc(S(=O)(=O)Nc3cccc(F)n3)c(F)cc21 (stereo partly drawn) [Ex21-10, 5-fluoro-N-(6-fluoropyridin-2-yl)-2-oxo-3-{(1R)-1-[3-(pyrrolidin-2-ylethynyl)phenyl]ethyl}-2,3-dihydro-1,3-benzoxazole-6-sulfonamide] | 88
13 | 145 | C[C@H](c1ccccc1C1CNC1)n1c(=O)oc2cc(S(=O)(=O)Nc3ccc(F)cn3)c(F)cc21 [Ex15-6, 3-[(1R)-1-(2-azetidin-3-ylphenyl)ethyl]-5-fluoro-N-(5-fluoropyridin-2-yl)-2-oxo-2,3-dihydro-1,3-benzoxazole-6-sulfonamide] | 207
14 | 155 | C[C@H](c1cccc(C#CCN)c1)n1c(=O)oc2cc(S(=O)(=O)Nc3cccc(F)n3)c(F)cc21 [Ex21-21, 3-{(1R)-1-[3-(3-aminoprop-1-yn-1-yl)phenyl]ethyl}-5-fluoro-N-(6-fluoropyridin-2-yl)-2-oxo-2,3-dihydro-1,3-benzoxazole-6-sulfonamide] | 193
15 | 12 | Cc1cc2c(cc1S(=O)(=O)Nc1cccc(F)n1)oc(=O)n2Cc1cccc2c1CC(N)CC2 (single isomer, unassigned) [Ex17-6, (S or R)-3-[(7-amino-5,6,7,8-tetrahydronaphthalen-1-yl)methyl]-N-(6-fluoropyridin-2-yl)-5-methyl-2-oxo-2,3-dihydro-1,3-benzoxazole-6-sulfonamide] | 178
16 | 40 | NC1CCc2cccc(Cn3c(=O)oc4cc(S(=O)(=O)Nc5cccc(F)n5)c(F)cc43)c2C1 (single isomer, unassigned) [Ex13-5, (R or S)-3-[(7-amino-5,6,7,8-tetrahydronaphthalen-1-yl)methyl]-5-fluoro-N-(6-fluoropyridin-2-yl)-2-oxo-2,3-dihydro-1,3-benzoxazole-6-sulfonamide] | 914
17 | 107 | Cc1cc2c(cc1S(=O)(=O)Nc1cccc(F)n1)oc(=O)n2[C@H](C)c1cccc(C)c1Br [Ex18-8, 3-[(1R)-1-(2-bromo-3-methylphenyl)ethyl]-N-(6-fluoropyridin-2-yl)-5-methyl-2-oxo-2,3-dihydro-1,3-benzoxazole-6-sulfonamide] | 102
18 | 596 | Cc1cccc([C@@H](C)n2c(=O)oc3cc(S(=O)(=O)Nc4cccc(F)n4)c(F)cc32)c1Br [Ex14-4, 3-[(1R)-1-(2-Bromo-3-methylphenyl)ethyl]-5-fluoro-N-(6-fluoropyridin-2-yl)-2-oxo-2,3-dihydro-1,3-benzoxazole-6-sulfonamide] | 27
19 | 13 | Cc1cc2c(cc1S(=O)(=O)Nc1cccc(F)n1)oc(=O)n2[C@H](C)c1ccccc1C1CCNCC1 [Ex18-3, (R)—N-(6-Fluoropyridin-2-yl)-5-methyl-2-oxo-3-(1-(2-(piperidin-4-yl)phenyl)ethyl)-2,3-dihydrobenzo[d]oxazole-6-sulfonamide] | 233
20 | 136 | Cc1c(C#CCN)cccc1[C@@H](C)n1c(=O)oc2cc(S(=O)(=O)Nc3cccc(F)n3)c(F)cc21 [Ex21-22, 3-{(1R)-1-[3-(3-aminoprop-1-yn-1-yl)-2-methylphenyl]ethyl}-5-fluoro-N-(6-fluoropyridin-2-yl)-2-oxo-2,3-dihydro-1,3-benzoxazole-6-sulfonamide] | 220
21 | 154 | Cc1c(CCN)cccc1[C@@H](C)n1c(=O)oc2cc(S(=O)(=O)Nc3cccc(F)n3)c(F)cc21 [Ex19-12] | 195
22 | 49 | C[C@H](c1ccccc1C#CC1(N)CCCCC1)n1c(=O)oc2cc(S(=O)(=O)Nc3cccc(F)n3)c(F)cc21 [Ex8-6, 3-[(1R)-1-{2-[(1-aminocyclohexyl)ethynyl]phenyl}ethyl]-5-fluoro-N-(6-fluoropyridin-2-yl)-2-oxo-2,3-dihydro-1,3-benzoxazole-6-sulfonamide] | 95
23 | 89 | Cl.NC1CCc2cccc(Cn3c(=O)oc4cc(S(=O)(=O)Nc5cccc(F)n5)c(F)cc43)c2C1 (single isomer, unassigned) [Ex13-4, (S or R)-3-((7-Amino-5,6,7,8-tetrahydronaphthalen-1-yl)methyl)-5-fluoro-N-(6-fluoropyridin-2-yl)-2-oxo-2,3-dihydrobenzo[d]oxazole-6-sulfonamide hydrochloride] | 304
